Test results published in patent publication US20220313652A1, “USE OF COMPOUND OR PHARMACEUTICALLY ACCEPTABLE SALT, DIMER OR TRIMER THEREOF IN MANUFACTURE OF MEDICAMENT FOR TREATING CANCER” (priority 2020, published 2022).
“Also recorded” adds a separate entry of the source. Where two headings read alike, the source gives them in different places. Values belong to the molecule of their own block, whether it stands above or below them.

Columns and labels:
lung cancer A549 cells = test: Tumor treatment experiment in A549 tumor cell-bearing nude mice
Procedure: After growing to the logarithmic phase, A549 cells were collected and resuspended in serum-free DMEM medium to 5×10^7 cells per ml. Each mouse was inoculated with 100 μl of 5×10^6 cells, and the tumor size was measured 19 days later. Mice were grouped according to the tumor size, and the average tumor size in each group was the same. Mice were administered after grouping.
The dose of Gefitinib was 100 mg per kilogram according to the reported dose for the treatment of A549 xenograft tumor in previous studies. The two drugs were administered by gavage, consistent with the current oral mode in clinical use. The dosing cycle was once every two days. The tumor size was measured every two days. After 40 days of administration, the test was ended, and the tumor was removed and weighed.

[1] = test system: ovarian cancer SKOV3 cells; test: MTT inhibitory effect of Sotagliflozin on SKOV3 cells; assay type: cell-based; conditions: 48 hours
Procedure: (§1) Prostate cancer DU145 cells, breast cancer MCF-7 cells, esophageal cancer KYSE30 cells, gastric cancer HGC-27 cells, cholangiocarcinoma RBE cells, ovarian cancer SKOV3 cells, and cervical cancer Hela cells were used to verify the inhibitory effect of Sotagliflozin on tumor cells. After growing to 80% density, the cells were trypsinized, passaged and plated in a 96-well plate with 5000 cells per well. After 24 hours, the medium was replaced with a medium containing the corresponding concentration of drug. After 48 hours, the absorbance at each concentration was detected by the MTT method.
(§2) The experiment included the following groups:
(§3) Control group: cells were cultured in normal culture medium without drug added.
(§4) Sotagliflozin test group: cells were treated by adding Sotagliflozin at different concentration to each culture medium.
(§5) After incubation, the cell growth inhibition rate was calculated by dividing the absorbance value at each concentration by the absorbance value of the control group. In the figures, the concentration of Sotagliflozin is taken as the abscissa and the cell growth inhibition rate is taken as the ordinate.

[2] = test system: gastric cancer HGC-27 cells; test: MTT inhibitory effect of Sotagliflozin on HGC-27 cells; assay type: cell-based; conditions: 48 hours
Procedure: as §1, §2, §3, §4, §5

[3] = test system: normal human umbilical cord epithelial cells
[4] = test system: lung cancer cell line A549; test: MTT growth inhibition / IC50 on lung cancer cell line A549; assay type: cell-based
From the text: According to the tissue distribution characteristics of EGFR and SGLT1/2, the targets of Gefitinib and Sotagliflozin, the followings cells were selected for experimental verification: lung cancer cell line A549; colorectal cancer cell line LoVo, HT29, SW620, HCT116; cervical cancer HeLa; ovarian cancer SKOV3; gastric cancer HGC27; cholangiocarcinoma RBE; esophageal cancer KYSE30, and the like. After growing to 80% density, the cells were trypsinized, passaged and plated in a 96-well plate with 5000 cells per well. After 24 hours, the medium was replaced with a medium containing the corresponding concentration of drug. After 48 hours, the absorbance at each concentration was detected by the MTT method.
as §2
Sotagliflozin test group (FIG. 2-a-2): cells were treated by adding Sotagliflozin alone at 6 different concentrations, 0 μM, 10 μM, 30 μM, 40 μM, […] respectively, to the culture medium, and cell survival rate was measured after […] of incubation.

[5] = test system: breast cancer MCF-7 cells; test: MTT inhibitory effect of Sotagliflozin on MCF-7 cells; assay type: cell-based; conditions: 48 hours
Procedure: as §1, §2, §3, §4, §5

[6] = test system: cervical cancer HeLa cells; test: MTT inhibitory effect of Sotagliflozin on HeLa cells; assay type: cell-based; conditions: 48 hours
Procedure: as §1, §2, §3, §4, §5

[7] = test system: esophageal cancer KYSE30 cells; test: MTT inhibitory effect of Sotagliflozin on KYSE30 cells; assay type: cell-based; conditions: 48 hours
Procedure: as §1, §2, §3, §4, §5

[8] = test system: liver cancer cell line HepG2; test: MTT growth inhibition / IC50 on liver cancer cell line HepG2; assay type: cell-based
Procedure: After growing to 80% density, the cells were trypsinized, passaged and plated in a 96-well plate with 5000 cells per well. […] After 48 hours, the absorbance at each concentration was detected by the MTT method.

[9] = test system: cholangiocarcinoma RBE cells; test: MTT inhibitory effect of Sotagliflozin on RBE cells; assay type: cell-based; conditions: 48 hours
Procedure: as §1, §2, §3, §4, §5

[10] = test system: prostate cancer DU145 cells; test: MTT inhibitory effect of Sotagliflozin on DU145 cells; assay type: cell-based; conditions: 48 hours
Procedure: as §1, §2, §3, §4, §5

[11] = test system: liver cancer cell line HepG2; colorectal cancer cell line LoVo, HT29, SW620, SW480; test: MTT growth inhibition, Apatinib alone vs Apatinib+Sotagliflozin on tumor cell lines; assay type: cell-based; conditions: Apatinib 5-30 μM alone or with Sotagliflozin 20 μM, 48 hours
From the text: After obtaining the effectiveness of Gefitinib in Example 1, the present disclosure further validated another VEGFR-targeting TKI drug, Apatinib. According to the tissue distribution characteristics of VEGFR and SGLT1/2, the targets of Apatinib and Sotagliflozin, the followings cells were selected for experimental verification: liver cancer cell line HepG2; colorectal cancer cell line LoVo, HT29, SW620, SW480; cervical cancer HeLa; ovarian cancer SKOV3; gastric cancer HGC27; cholangiocarcinoma RBE; esophageal cancer KYSE3, and the like. After growing to 80% density, the cells were trypsinized, passaged and plated in a 96-well plate with 5000 cells per well. After 24 hours, the medium was replaced with a medium containing the corresponding concentration of Apatinib, Sotagliflozin, or the combination of Apatinib and Sotagliflozin. After 48 hours, the absorbance at each concentration was detected by the MTT method. The experiment included the following groups: Control group: cells were cultured in normal culture medium without drug added. […] The cell growth inhibition rate was calculated by dividing the absorbance value at each concentration by the absorbance value of the control group. […] In the figures, the concentration of Apatinib is taken as the abscissa and the cell growth inhibition rate is taken as the ordinate.

[12] = test system: liver cancer HepG2 cells, colorectal cancer LoVo, HT29, DLD1, SW480, and HCT116 cells; test: Growth inhibition, Lenvatinib alone vs Sotagliflozin combined with Lenvatinib; assay type: cell-based; conditions: Sotagliflozin at a safe dose; variety of cell lines
From the text: Therefore, the effect of the combination in the safe concentration range of Sotagliflozin is better than the effect of each single agent. It is worth mentioning that the ability of Sotagliflozin in the combination to enhance the efficacy of VEGFR-targeting TKI drugs is not limited to a single drug of Apatinib.

[13] = A549 tumor-bearing nude mice, gavage once every two days, 40 days

Molecule: COc1cc2ncnc(Nc3ccc(F)c(Cl)c3)c2cc1OCCCN1CCOCC1 [Gefitinib]
Average tumor volume (lung cancer A549 cells; mouse, in vivo): 504.8
Tumor volume ratio of each group to the control group (lung cancer A549 cells; mouse, in vivo): 0.4881

IC50 [1]: 84.5 µM
IC50 [2]: 48.5 µM
IC50 ([4]; Sotagliflozin alone, lung cancer A549 cells, summary value, read-out: IC50): 71.6 µM
IC50 [5]: 64.8 µM
IC50 [6]: 82.1 µM
IC50 [7]: 82.3 µM
IC50 ([8]; Sotagliflozin alone, liver cancer HepG2 cells, summary value, read-out: IC50): 116 µM
IC50 [10]: 40.8 µM
Molecule: Sotagliflozin
concentration at which mainly cell growth inhibition effect is exhibited [3]: lower than 8 μM
concentration producing great cytotoxicity [3]: higher than 80 μM
IC50 ([4]; single agent alone, cell survival rate after 1 h of incubation, read-out: IC50 value on A549 cells): 73 µM
IC50 ([8]; Sotagliflozin alone, cell survival rate after 2 h of incubation, read-out: IC50 value on HepG2 cells): 116 µM
IC50 [9]: 182 µM
Tumor growth inhibition rate (lung cancer A549 cells; [13]): 58.4
Tumor volume ratio of each group to the control group (lung cancer A549 cells; [13]): 0.416
Average tumor volume (lung cancer A549 cells; A549 tumor-bearing nude mice, gavage once every two days, 40 days, Sotagliflozin 30 mg/kg, Gefitinib 100 mg per kilogram): 430.3
inhibitory effect on tumor volume / tumor growth (lung cancer A549 cells; tumor-bearing mice): can inhibit tumor growth; also recorded: good inhibitory effect on tumor volume

Molecule: N#CC1(c2ccc(NC(=O)c3cccnc3NCc3ccncc3)cc2)CCCC1 [Apatinib]
IC50 ([8]; Homo sapiens, HepG2, Apatinib alone, cell survival rate after 2 h of incubation, read-out: IC50 value on HepG2 cells): 46 µM
inhibitory effect on tumor cells (cell growth inhibition rate) [11]: limited

Molecule: COc1cc2nccc(Oc3ccc(NC(=O)NC4CC4)c(Cl)c3)c2cc1C(N)=O [Lenvatinib]
effect of addition of Sotagliflozin on inhibitory effect of Lenvatinib [12]: enhanced the inhibitory effect
